The source of these data is patent publication US20040009569A1, “Kinase crystal structures and materials and methods for kinase activation” (priority 2001, published 2004).

Peptide text beside a SMILES is read from it.

A word on the EC50: it is the concentration that produces a half-maximal response.

Test [1] concerns the target T1, ΔPH-PKB-ΔC (Homo sapiens, UniProt P31751).
T1 construct: ΔPH-PKB-ΔC(residues 146 to 460, not phosphorylated on Thr-309); 6xHis (N, cleaved yes); made in house; host or cells: Sf9 insect cells / baculovirus (pFastBacHTa)
The test can be described thus: Isothermal titration calorimetry, peptide binding to ΔPH-PKB-ΔC. As for the experimental part:
(§1) (C) Isothermal titration calorimetry measurements of the binding of PIFtide to pΔPH-PKB-ΔC (left) and ΔPH-PKB-ΔC (right). Upper panel, raw data of the titration of PIFtide into pΔPH-PKB-ΔC. Lower panel, integrated heats of injections, corrected for the heat of dilution, with the solid line corresponding to the best fit of the data using the MicroCal software.
(§2) Using isothermal titration calorimetry, the affinity between PIFtide and both pΔPH-PKB-ΔC and ΔPH-PKB-ΔC was determined (FIG. 5C). […] The observed large decrease in entropy is […] typical of protein-peptide interactions, for example SH2-domain-phosphotyrosine peptide complexes (Ladbury et al., 1996), and is consistent with an ordering of both the protein, presumably the αB- and αC-helices of the N-lobe, and peptide on complex formation.
On the technique in general: ITC needs no label: the signal is the heat of the interaction.

For test [2], the target named is T2, pΔPH-PKB-ΔC (Homo sapiens, UniProt P31751).
T2 construct: pΔPH-PKB-ΔC (residues 146 to 460, phosphorylated in vitro on Thr-309); 6xHis (N, cleaved yes); made in house; host or cells: Sf9 insect cells / baculovirus (pFastBacHTa)
T2 sequence (P31751 146-460, stated change not applied): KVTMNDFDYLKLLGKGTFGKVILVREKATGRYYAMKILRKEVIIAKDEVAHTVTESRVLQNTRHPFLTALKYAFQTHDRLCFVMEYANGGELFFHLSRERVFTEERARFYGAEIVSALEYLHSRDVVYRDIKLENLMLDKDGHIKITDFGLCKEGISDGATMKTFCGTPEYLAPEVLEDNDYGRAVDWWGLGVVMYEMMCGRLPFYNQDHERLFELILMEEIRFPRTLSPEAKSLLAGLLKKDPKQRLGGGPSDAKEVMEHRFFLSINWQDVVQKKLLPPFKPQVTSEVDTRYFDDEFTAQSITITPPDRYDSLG
The test can be described thus: Isothermal titration calorimetry, peptide binding to pΔPH-PKB-ΔC. Conditions: ITC; read-out: equilibrium dissociation constant. On the procedure:
as §1, §2

Test [3] deals with T3, PDK1 (Homo sapiens, UniProt O15530).
T3 sequence (O15530 1-556): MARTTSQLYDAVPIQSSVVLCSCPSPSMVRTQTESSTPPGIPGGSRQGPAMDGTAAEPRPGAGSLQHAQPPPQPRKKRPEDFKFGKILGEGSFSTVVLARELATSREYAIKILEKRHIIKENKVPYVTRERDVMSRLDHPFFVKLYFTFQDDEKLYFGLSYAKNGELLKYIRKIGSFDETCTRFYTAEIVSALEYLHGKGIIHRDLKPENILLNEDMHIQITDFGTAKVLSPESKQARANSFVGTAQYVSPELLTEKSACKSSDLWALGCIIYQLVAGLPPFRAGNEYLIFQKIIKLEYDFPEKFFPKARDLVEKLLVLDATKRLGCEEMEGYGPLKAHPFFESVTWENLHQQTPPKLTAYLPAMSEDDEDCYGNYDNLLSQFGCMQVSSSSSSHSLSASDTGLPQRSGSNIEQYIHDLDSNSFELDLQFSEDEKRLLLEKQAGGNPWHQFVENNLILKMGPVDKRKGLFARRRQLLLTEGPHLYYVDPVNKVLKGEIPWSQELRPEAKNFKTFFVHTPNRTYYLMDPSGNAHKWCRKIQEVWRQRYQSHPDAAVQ
Conditions: cited from earlier work.

The target of test [4] is T4, His tagged pΔPH-PKB-ΔC L225A mutant (Homo sapiens, UniProt P31751, L225A).
T4 construct: pΔPH-PKB-ΔC (residues 146 to 460, phosphorylated in vitro on Thr-309); made in house; host or cells: HEK cells (transient expression), purified on Ni-NTA agarose
T4 sequence (P31751 146-460 L225A): as the sequence (P31751 146-460, stated change not applied) above, with L80A counted along it
Briefly: PIFtide responsiveness of hydrophobic groove mutant Leu 225. The format is biochemical. The settings on record: 130 μM PIFtide. On the procedure:
(§3) Mutations of conserved hydrophobic motif residues of PIFtide and PKB HM-peptide reduce or eliminate their potential to activate ΔPH-PKB-ΔC phosphorylated on Thr 309. Mutations of hydrophobic and electrostatic residues of the ΔPH-PKB-ΔC N-lobe hydrophobic groove reduces the stimulation of PKB activity by 130 μM PIFtide.
(§4) To test the notion that a hydrophobic groove is induced in PKB to engage the hydrophobic motif, and activate the kinase, a series of His tagged pΔPH-PKB-ΔC hydrophobic groove mutants were prepared and their responsiveness to PIFtide assessed. PKB mutants were transiently expressed in HEK cells, phosphorylated in vitro with PDK1, and purified using Ni-NTA agarose. […] Wild type PKB prepared using this procedure was stimulated ˜5-fold by 130 μM PIFtide (FIG. 6B).
(§5) PKB was assayed essentially as described by Andjelkovic et al. (1999) with 30 μM Crosstide (GRPRTSSAEG) as substrate except the protein kinase A inhibitor peptide was not added to the reactions. For peptide stimulation experiments the various peptides were dissolved in water and added to the kinase assay mix prior to adding the PKB protein. Peptides were synthesized by Franz Fischer at the FMI or purchased from Neosystem, Strasburg, France.

In test [5] the target is T5, pΔPH-PKB-ΔC (PKBβ residues 146 to 460, phosphorylated in vitro on Thr-309) (Homo sapiens, UniProt P31751).
T5 construct: pΔPH-PKB-ΔC (residues 146 to 460, phosphorylated in vitro on Thr-309); 6xHis (N, cleaved yes); made in house; host or cells: Sf9 insect cells / baculovirus (pFastBacHTa)
T5 sequence (P31751 146-460, stated change not applied): as the sequence (P31751 146-460, stated change not applied) above
Briefly: Protein kinase B assay with Crosstide as substrate, peptide stimulation of pΔPH-PKB-ΔC. The format is biochemical. The settings on record: Crosstide substrate. As for the experimental part:
To test the model that Ser 474 phosphorylation promotes an interaction between the hydrophobic motif and the induced hydrophobic groove of the N-terminal lobe, thereby causing an allosteric activation of the kinase, the ability of peptides modelled on the hydrophobic motif of PKB to activate the enzyme via an intermolecular association with the N-terminal lobe was assessed.
as §5
All experiments were performed in either duplicate or triplicate.

Test [6] addresses T6, His tagged pΔPH-PKB-ΔC R202D mutant (Homo sapiens, UniProt P31751, R202D).
T6 construct: pΔPH-PKB-ΔC (residues 146 to 460, phosphorylated in vitro on Thr-309); made in house; host or cells: HEK cells (transient expression), purified on Ni-NTA agarose
Briefly: PIFtide responsiveness of charge reversal mutant R202D. The format is biochemical. On the procedure: as §3, §4
Electrostatic interactions are important in defining high affinity PIFtide and PKB HM peptide associations with PKB (FIG. 5B), and form the basis for the increased affinity of the HM for the N-lobe and subsequent activation of PKB by Ser 474 phosphorylation. […] The equivalent residue of PKA, Arg 93, which is also conserved in PKC and PRK2, forms a water-mediated salt bridge to the carboxylate group of Glu 349 (FIG. 2).
PKB was assayed essentially as described by Andjelkovic et al. (1999) with 30 μM Crosstide (GRPRTSSAEG) as substrate except the protein kinase A inhibitor peptide was not added to the reactions. […]

Test [7] concerns the target T3, PDK1. Conditions: cited from earlier work. This is another data set of the same source.

T1 sequence (P31751 146-460, stated change not applied): as above
T6 sequence (P31751 146-460 R202D): as the sequence (P31751 146-460, stated change not applied) above, with R57D counted along it

Regarding `CC[C@H](C)[C@H](NC(=O)[C@H](Cc1ccc(O)cc1)NC(=O)[C@H](CC(=O)O)NC(=O)[C@H](Cc1ccccc1)NC(=O)[C@H](CC(=O)O)NC(=O)[C@H](CCCNC(=N)N)NC(=O)[C@H](Cc1ccccc1)NC(=O)[C@H](CCSC)NC(=O)[C@H](CCC(=O)O)NC(=O)[C@H](CCC(N)=O)NC(=O)[C@H](CCC(=O)O)NC(=O)[C@H](CCC(=O)O)NC(=O)[C@H](CCC(=O)O)NC(=O)[C@H](CO)NC(=O)[C@H](CC(C)C)NC(=O)[C@@H](NC(=O)[C@H](CCCNC(=N)N)NC(=O)[C@@H]1CCCN1C(=O)[C@H](CCC(=O)O)NC(=O)[C@@H](N)CCCNC(=N)N)[C@@H](C)CC)C(=O)N[C@@H](C)C(=O)N[C@@H](CC(=O)O)C(=O)N[C@@H](Cc1c[nH]c2ccccc12)C(=O)O` [PIFtide] (H-REPRILSEEEQEMFRDFDYIADW-OH; N-terminus and C-terminus assumed), the “binding to ΔPH-PKB-ΔC (in words)” value in test [1] is reported as “can bind”. In addition, in test [1] (ITC), the “enthalpy change ΔH” value is -16.0 kcal/mol and the “entropy term TΔS” value is -9.2 kcal/mol. In addition, in test [1] (ITC, read-out: dissociation constant), the Kd came to 5.5 µM. In test [2], the Kd turned out to be 6 µM. Besides, in test [3], the “stimulation of PDK1 activity” value is reported as “four-fold”. The “responsiveness to PIFtide (in words)” value in test [4] is on record as “almost a complete loss of responsiveness”. Further, in test [5], the “concentration of maximum and saturable activation” value amounted to 20 µM; the “specific activity of pΔPH-PKB-ΔC maximally activated by PIFtide” value was 350 nmol/min/mg. For the same molecule, the EC50 in test [5] (value of PIFtide(D->A) called estimated, read-out: EC50 for activation of pΔPH-PKB-ΔC) is 3000 nM. For the same molecule, in test [6] (130 μM PIFtide), the “ability of PIFtide to activate R202D PKB (in words)” value is “almost eliminates”. The “responsiveness of R202D PKB (in words)” value in test [6] (higher concentrations of the peptide) is recorded as “more responsive”. Besides, the “effect on thermal stability of PDK1 (in words)” value in test [7] is on record as “greatly increases”.
